In PMC9465062, “Exploring potential antidiabetic and anti-inflammatory flavonoids from Euphorbia humifusa with an integrated strategy” (Frontiers in Pharmacology, 2022):
Values joined by “and” are separate entries in the source; they are usually repeats but may differ in a detail not shown here. Identical values can stand only once. Like-named read-outs stand apart in the source and are kept apart here. Marks after values point to notes of the source that are not given here.

Tests used:
[1] = DPPH free radical scavenging assay; conditions: mean ± SD, n = 3
Description: (§1) The antioxidant activity of our samples was ascertained by evaluating their capacity to scavenge free radicals and reduce ferric ions. The DPPH and ABTS free radical scavenging assays were performed as per the method of Xu and his colleagues ([Xu et al., 2019]). Vit C, Trolox, and BHT were utilized as positive controls whereas pure methanol was for the blank control. The scavenging rate was calculated using the equation: Scavenging rate (%) =(A0 −AS)/A0× 100% With A 0 and As are ascribed to the absorbance value of the blank control, and the tested sample or positive control respectively. The results were expressed in IC50 values (n = 3, mean ± standard deviation).

α-glucosidase (α-Glu) = α-glucosidase (α-Glu) (Saccharomyces cerevisiae, UniProt P53341); experiment: Bio-affinity ultrafiltration UPLC/QTOF-MS with α-Glu; conditions: SB = Aactive/Ainactive, ligands from EHNB
α-glucosidase (α-Glu), sequence (P53341 whole entry): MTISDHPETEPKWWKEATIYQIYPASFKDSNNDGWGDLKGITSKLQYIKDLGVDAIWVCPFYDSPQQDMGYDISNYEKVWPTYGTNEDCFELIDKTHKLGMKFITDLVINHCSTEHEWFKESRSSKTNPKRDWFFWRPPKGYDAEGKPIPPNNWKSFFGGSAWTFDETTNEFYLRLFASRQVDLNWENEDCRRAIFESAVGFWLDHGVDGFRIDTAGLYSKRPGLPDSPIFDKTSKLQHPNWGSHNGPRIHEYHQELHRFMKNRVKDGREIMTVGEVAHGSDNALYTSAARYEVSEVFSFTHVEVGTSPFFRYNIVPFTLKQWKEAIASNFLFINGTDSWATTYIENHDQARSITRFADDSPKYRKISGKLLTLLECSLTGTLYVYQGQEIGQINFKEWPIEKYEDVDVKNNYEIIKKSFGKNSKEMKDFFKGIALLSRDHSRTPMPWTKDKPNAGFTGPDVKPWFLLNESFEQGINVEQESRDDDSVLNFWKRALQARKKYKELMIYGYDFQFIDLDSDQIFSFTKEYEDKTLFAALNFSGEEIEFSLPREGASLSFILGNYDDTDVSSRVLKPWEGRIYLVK
Description: (§2) Concisely, 100 µL volume of EHNB sample was incubated with 40 µL COX-2 (8 units), or 100 µL α-Glu (6 units) active enzymes. Afterward, the mix solutions were incubated for 45 min and subsequently transferred to a centrifugal ultrafiltration vial 10 kDa cut-off filter membrane. They were initially centrifuged at 10,000 rpm for 10 min (25°C) to withdraw the extra solution followed by three successive centrifugations with 200 µL phosphate-buffered saline (PBS) to wash away the non-binding compounds. Finally, the fixed ligand candidates were fished out from the complex throughout enzyme denaturation with 200 μL of 70% (v/v) aqueous methanol before centrifugation (10,000 rpm, 10 min). The filtrates from three denaturation processes were gathered and dried on nitrogen blowing before reconstitution in 50 μL of aqueous methanol (50%, v/v) for further analytical analysis.
(§3) In this study, the high throughput ligand screening bio-affinity ultrafiltration UPLC/QTOF-MS targeting α-Glu and COX-2 has been utilized to fish out these key hypoglycemic and anti-inflammatory chemicals. […] Based on the comparison of peak areas of the chromatograms obtained from the sample incubated with the active enzyme and that of the denatured group, the relative binding of each candidate was assessed via the specific binding value calculated from the equation: Specific binding (SB)=Aactive/Ainactive

COX-2 [2] = biological target: T1, COX-2 (Homo sapiens, UniProt P35354); experiment: Bio-affinity ultrafiltration UPLC/QTOF-MS with COX-2; conditions: SB = Aactive/Ainactive, ligands from EHNB
T1 sequence (P35354 18-604): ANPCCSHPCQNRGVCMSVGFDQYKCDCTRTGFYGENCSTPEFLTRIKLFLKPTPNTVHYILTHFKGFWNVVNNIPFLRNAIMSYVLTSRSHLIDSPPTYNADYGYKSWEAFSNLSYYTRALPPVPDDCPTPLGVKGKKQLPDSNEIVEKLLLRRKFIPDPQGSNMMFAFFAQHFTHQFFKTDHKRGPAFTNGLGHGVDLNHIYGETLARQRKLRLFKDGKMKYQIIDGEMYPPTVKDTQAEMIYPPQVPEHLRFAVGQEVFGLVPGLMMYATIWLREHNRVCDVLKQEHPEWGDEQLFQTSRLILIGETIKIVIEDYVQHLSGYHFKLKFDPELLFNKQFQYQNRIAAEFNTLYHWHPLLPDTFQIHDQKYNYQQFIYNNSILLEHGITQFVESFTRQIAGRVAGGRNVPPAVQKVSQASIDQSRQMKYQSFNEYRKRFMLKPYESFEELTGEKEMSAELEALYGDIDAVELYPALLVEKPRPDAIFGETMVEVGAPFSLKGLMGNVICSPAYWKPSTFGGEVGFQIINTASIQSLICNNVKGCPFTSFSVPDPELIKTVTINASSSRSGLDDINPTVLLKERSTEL
Description: as §2, §3

COX-2 [3] = biological target: T1, COX-2; experiment: In vitro COX-2 inhibition assay (inhibitor screening kit); format: biochemical; design: purchased Beyotime Biotechnology (Shanghai, China) S0168
Description: In brief, the working solutions including COX-2 cofactor, COX-2 enzyme solution, COX-2 substrate, and COX-2 probe were first prepared in accordance with the supplier manual, which were subsequently diluted ten times with the buffer kit assay. Thereafter, 150 µL Tris-HCl (pH 7.8), 10 µL of COX-2 cofactor, and 10 µL of work solution excluding the blank group were mixed in a 96 well black plate. […] After a 10 min incubation at 37°C, the reaction was initiated with 10 µL of COX-2 probe and 10 µL of COX-2 substrate. Finally, their relative fluorescence unit (RFU) was read from an excitation wavelength of 560 nm and an emission wavelength of 590 nm, after 20 min of incubation (37°C).
With RFU 100% enzyme , RFU sample , and RFU blank control represent the relative fluorescence value of the intact enzyme, samples and blank control respectively. The experiment was conducted in triplicates and the IC50 values were expressed into mean ± standard deviation.

[4] = ABTS free radical scavenging assay; conditions: mean ± SD, n = 3
Description: as §1

[5] = Ferric reducing antioxidant power (FRAP) assay; conditions: mean ± SD, n = 3
Description: The ferric […] behavior using the ferric reducing antioxidant power (FRAP) assay was conducted based on a priorly reported method by our research group ([Rakotondrabe et al., 2022]).

SMILES	IC50 DPPH [1]	α-Glu SB (specific binding) (α-glucosidase (α-Glu))	COX-2 SB (specific binding) (COX-2 [2])	IC50 ABTS [4]	FRAP [5]	also measured
Cc1cc(C(C)(C)C)c(O)c(C(C)(C)C)c1 [BHT, butylated hydroxytoluene]	10.82 ± 0.37^c µg/ml	–	–	–	–	–
O=c1oc2c(O)c(O)cc3c(=O)oc4c(O)c(O)cc1c4c23 [Compound 4, Ellagic acid]	–	1.28	1.05	–	–	–
O=c1c(O[C@@H]2O[C@H](CO)[C@@H](O)[C@H](O)[C@H]2O)c(-c2ccc(O)cc2)oc2cc(O)cc(O)c12 [Compound 6, Astragalin (Kaempferol-3-O-glucoside)]	–	1.32	1.36	–	–	IC50 (COX-2 [3]; validation with pure compounds, Figure 6B, read-out: COX-2 IC50): 49.1 ± 1.49 µM
O=c1cc(-c2ccc(O)cc2)oc2c([C@@H]3O[C@H](CO)[C@@H](O)[C@H](O)[C@H]3O)c(O)cc(O)c12 [Compound 8, Vitexin (Apigenin 8-C-glucoside)]	–	1.26	1.32	–	–	IC50 (COX-2 [3]): 27.9 ± 1.74 µM
Cc1c(C)c2c(c(C)c1O)CCC(C)(C(=O)O)O2 (centres unmarked) [Trolox]	–	–	–	6.15 ± 0.98^d µg/ml	1.79 ± 0.01 mM Fe^2+/g and 1.79 ± 0.01^b mM Fe^2+/g	–
O=C1O[C@H]([C@@H](O)CO)C(O)=C1O [Vit C, ascorbic acid]	3.35 ± 0.12^f µg/ml	–	–	4.18 ± 0.06^e µg/ml	2.04 ± 0.01 mM Fe^2+/g and 2.04 ± 0.01^a mM Fe^2+/g	–
